The source made the active and inactive calls.
Experiments:
KB = assay: Antiviral activity against Rhinovirus type 13 infected in human KB cells assessed as inhibition of virus-induced cytopathic effect; type: functional, cell-based; settings: Human rhinovirus A13
Human alphaherpesvirus 1 = assay: Antiviral activity against Herpes virus type 1 infected in human KB cells assessed as inhibition of virus-induced cytopathic effect; type: functional, organism-based
Human respirovirus 3 = assay: Antiviral activity against Parainfluenza virus type 3 infected in human KB cells assessed as inhibition of virus-induced cytopathic effect; type: functional, organism-based

Measured: Activity

Nc1cc2[nH]ncc2c(=O)[nH]1
inactive: all assays above
